Tests used:
hNAMPT protein = hNAMPT protein (Homo sapiens (Human), UniProt P43490); assay: NAMPT enzyme assay (TR-FRET/HTRF with BodiPY ligand); format: binding; conditions: for inhibition at 1 µM: NAMPT inhibition at compound concentration 1 μM, read-out: Percent Inhibition; for IC50: NAMPT inhibition, IC50 range class
Method in brief: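 His-tagged hNAMPT with anti-6His-Tb, incubated with compound and BodiPY ligand for 1 h at rt in the dark, in Tris-HCl pH 7.5 buffer with DTT, NaCl, MgCl2 and Tween 20. TR-FRET measured with 320 nm excitation as the 520/486 nm emission ratio. IC50 fitted relative to DMSO controls.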

PC3 cells = assay: PC3 growth inhibition (Cell-titer glo, 72 hours); format: cell-based; conditions: Homo sapiens, PC-3, 72 h, read-out: Percent Viability, PC3 cells, compound concentration 1.667 μM, 72 hours
Method in brief: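 PC3 cells grown in RPMI1640 plated at 8×10^4 cells/ml, incubated overnight, then exposed to compound diluted in AIM serum-free medium for 72 h at 37 °C, 5% CO2. Luminescence by CellTiter-Glo relative to DMSO controls; % viability at single concentration, GI50 or LD50 from concentration-response curves.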

Chain of hNAMPT protein (P43490 whole entry): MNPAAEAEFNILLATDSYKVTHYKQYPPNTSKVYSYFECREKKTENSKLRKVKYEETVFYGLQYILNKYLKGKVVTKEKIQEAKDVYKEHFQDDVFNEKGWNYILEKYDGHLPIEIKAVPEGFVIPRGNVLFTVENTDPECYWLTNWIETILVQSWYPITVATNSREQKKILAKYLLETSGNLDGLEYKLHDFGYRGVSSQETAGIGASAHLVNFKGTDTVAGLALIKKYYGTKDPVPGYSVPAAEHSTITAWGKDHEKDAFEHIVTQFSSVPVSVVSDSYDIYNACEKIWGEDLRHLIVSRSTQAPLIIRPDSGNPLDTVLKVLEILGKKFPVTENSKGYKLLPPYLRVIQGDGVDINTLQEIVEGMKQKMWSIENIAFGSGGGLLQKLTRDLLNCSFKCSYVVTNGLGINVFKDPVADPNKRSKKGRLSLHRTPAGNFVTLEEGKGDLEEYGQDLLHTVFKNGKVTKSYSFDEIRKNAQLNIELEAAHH

SMILES | inhibition at 1 µM (hNAMPT protein) [%] | IC50 (hNAMPT protein) [nM] | viability at 1.667 µM (PC3 cells) [%]
CCOc1cc(-c2ccc(OC)nc2)nc2cc(C(=O)NCCc3nc[nH]n3)ccc12 [Compound I-186, 4-ethoxy-2-(6-methoxypyridin-3-yl)-N-[2-(1H-1,2,4-triazol-3-yl)ethyl]quinoline-7-carboxamide] | 99 | 10 to 50 | 4
CCOc1cc(-c2cc(F)ccc2OC)nc2cc(C(=O)NCc3nc4cnccc4[nH]3)ccc12 [Compound I-187, 4-ethoxy-2-(5-fluoro-2-methoxyphenyl)-N-(1H-imidazo[4,5-c]pyridin-2-ylmethyl)quinoline-7-carboxamide] | > 99 | < 10 | 3
CCOc1cc(-c2cc(OC)ncc2F)nc2cc(C(=O)NCc3nc4cnccc4[nH]3)ccc12 [Compound I-188, 4-ethoxy-2-(5-fluoro-2-methoxypyridin-4-yl)-N-(1H-imidazo[4,5-c]pyridin-2-ylmethyl)quinoline-7-carboxamide] | 99 | < 10 | 3
CCOc1cc(-c2cc(OC)ncc2F)nc2cc(C(=O)NCCc3cnn[nH]3)ccc12 [Compound I-189, 4-ethoxy-2-(5-fluoro-2-methoxypyridin-4-yl)-N-[2-(1H-1,2,3-triazol-5-yl)ethyl]quinoline-7-carboxamide] | 74 | > 100 | > 99
CCOc1cc(-c2cccnc2OC)nc2cc(C(=O)NCCc3cnn[nH]3)ccc12 [Compound I-190, 4-ethoxy-2-(2-methoxypyridin-3-yl)-N-[2-(1H-1,2,3-triazol-5-yl)ethyl]quinoline-7-carboxamide] | 94 | 50 to 100 | 5
CCOc1cc(-c2ccnc(OC)c2)nc2cc(C(=O)NCCc3nnc[nH]3)ccc12 [Compound I-191, 4-ethoxy-2-(2-methoxypyridin-4-yl)-N-[2-(4H-1,2,4-triazol-3-yl)ethyl]quinoline-7-carboxamide] | 79 | > 100 | 10
CCOc1cc(-c2cccnc2OC)nc2cc(C(=O)NCc3nc4ccncc4[nH]3)ccc12 [Compound I-192, 4-ethoxy-N-(3H-imidazo[4,5-c]pyridin-2-ylmethyl)-2-(2-methoxypyridin-3-yl)quinoline-7-carboxamide] | 100 | < 10 | 3
CCOc1cc(-c2ccc(OC)nc2)nc2cc(C(=O)NCc3nc4cnccc4[nH]3)ccc12 [Compound I-193, 4-ethoxy-N-(1H-imidazo[4,5-c]pyridin-2-ylmethyl)-2-(6-methoxypyridin-3-yl)quinoline-7-carboxamide] | > 99 | < 10 | 3
CCOc1cc(-c2ccnc(OC)c2)nc2cc(C(=O)NCc3nc4cnccc4[nH]3)ccc12 [Compound I-194, 4-ethoxy-N-(1H-imidazo[4,5-c]pyridin-2-ylmethyl)-2-(2-methoxypyridin-4-yl)quinoline-7-carboxamide] | 100 | < 10 | 3
CCOc1cc(-c2ccnc(OC)c2)nc2cc(C(=O)NCCc3cnn[nH]3)ccc12 [Compound I-195, 4-ethoxy-2-(2-methoxypyridin-4-yl)-N-[2-(1H-1,2,3-triazol-5-yl)ethyl]quinoline-7-carboxamide] | 89 | 50 to 100 | 19
COc1cc(-c2nc(-c3ccc(F)cc3)nc3cc(C(=O)NCCCc4ncc[nH]4)ccc23)ccn1 [Compound I-196, 2-(4-fluorophenyl)-N-[3-(1H-imidazol-2-yl)propyl]-4-(2-methoxypyridin-4-yl)quinazoline-7-carboxamide] | 100 | < 10 | 1
COc1cc(-c2nc(-c3ccc(F)cc3)nc3cc(C(=O)NCCCc4nnc[nH]4)ccc23)ccn1 [Compound I-197, 2-(4-fluorophenyl)-4-(2-methoxypyridin-4-yl)-N-[3-(4H-1,2,4-triazol-3-yl)propyl]quinazoline-7-carboxamide] | 97 | 10 to 50 | 3
CCOc1cc(-c2ccc(Cl)cc2)nc2cc(C(=O)NCCCc3nnc[nH]3)ccc12 [Compound I-198] | 94 |  | 3
CCOc1cc(-c2cc(F)ccc2OC)nc2cc(C(=O)NCCCc3nnc[nH]3)ccc12 [Compound I-199, 4-ethoxy-2-(5-fluoro-2-methoxyphenyl)-N-[3-(4H-1,2,4-triazol-3-yl)propyl]quinoline-7-carboxamide] | 100 | 10 to 50 | 2
CCOc1cc(-c2ccc(F)cc2)nc2cc(C(=O)NCCCc3c[nH]nc3C)ccc12 [Compound I-201, 4-ethoxy-2-(4-fluorophenyl)-N-[3-(3-methyl-1H-pyrazol-4-yl)propyl]quinoline-7-carboxamide] | 98 | < 10 | 3
CCOc1cc(-c2ccnc(C)c2)nc2cc(C(=O)NCCCc3nnc[nH]3)ccc12 [Compound I-202, 4-ethoxy-2-(2-methylpyridin-4-yl)-N-[3-(4H-1,2,4-triazol-3-yl)propyl]quinoline-7-carboxamide] | 98 | 10 to 50 | 1
CCOc1cc(-c2ccc(F)cc2)nc2cc(C(=O)NCCc3n[nH]nc3C)ccc12 [Compound I-203, 4-ethoxy-2-(4-fluorophenyl)-N-[2-(5-methyl-2H-1,2,3-triazol-4-yl)ethyl]quinoline-7-carboxamide] | 98 | < 10 | 2
CCOc1cc(-c2ccc(F)cc2)nc2cc(C(=O)NCCCc3cc[nH]n3)ccc12 [Compound I-204, 4-ethoxy-2-(4-fluorophenyl)-N-[3-(1H-pyrazol-3-yl)propyl]quinoline-7-carboxamide] | 100 | < 10 | 2
CCOc1cc(-c2cn[nH]c2)nc2cc(C(=O)NCCCc3nnc[nH]3)ccc12 [Compound I-205, 4-ethoxy-2-(1H-pyrazol-4-yl)-N-[3-(4H-1,2,4-triazol-3-yl)propyl]quinoline-7-carboxamide] | 63 | > 100 | 4
CCOc1cc(-c2cnn(C)c2)nc2cc(C(=O)NCCCc3nnc[nH]3)ccc12 [Compound I-206, 4-ethoxy-2-(1-methyl-1H-pyrazol-4-yl)-N-[3-(4H-1,2,4-triazol-3-yl)propyl]quinoline-7-carboxamide] | 66 | > 100 | 2
CCOc1cc(-c2ccccc2)nc2cc(C(=O)NCCCc3nnc[nH]3)ccc12 [Compound I-207, 4-ethoxy-2-phenyl-N-[3-(4H-1,2,4-triazol-3-yl)propyl]quinoline-7-carboxamide] | 96 | 10 to 50 | 2
CCOc1cc(-c2cncnc2)nc2cc(C(=O)NCCCc3nnc[nH]3)ccc12 [Compound I-208, 4-ethoxy-2-(pyrimidin-5-yl)-N-[3-(4H-1,2,4-triazol-3-yl)propyl]quinoline-7-carboxamide] | 86 | > 100 | 2
CCOc1cc(-c2cccnc2)nc2cc(C(=O)NCCCc3nnc[nH]3)ccc12 [Compound I-209, 4-ethoxy-2-(pyridin-3-yl)-N-[3-(4H-1,2,4-triazol-3-yl)propyl]quinoline-7-carboxamide] | 92 | 50 to 100 | 1
CCOc1cc(-c2cncc(OC)c2)nc2cc(C(=O)NCCCc3nnc[nH]3)ccc12 [Compound I-210, 4-ethoxy-2-(5-methoxypyridin-3-yl)-N-[3-(4H-1,2,4-triazol-3-yl)propyl]quinoline-7-carboxamide] | 94 | 10 to 50 | 1
CCOc1cc(-c2cnc(Cl)cc2C)nc2cc(C(=O)NCCCc3nnc[nH]3)ccc12 [Compound I-211, 2-(6-chloro-4-methylpyridin-3-yl)-4-ethoxy-N-[3-(4H-1,2,4-triazol-3-yl)propyl]quinoline-7-carboxamide] | 50 | > 100 | 3
CCOc1cc(-c2cnccc2OC)nc2cc(C(=O)NCCCc3nnc[nH]3)ccc12 [Compound I-212, 4-ethoxy-2-(4-methoxypyridin-3-yl)-N-[3-(4H-1,2,4-triazol-3-yl)propyl]quinoline-7-carboxamide] | 69 | > 100 | 2
CCOc1cc(-c2cccnc2C)nc2cc(C(=O)NCCCc3nnc[nH]3)ccc12 [Compound I-213, 4-ethoxy-2-(2-methylpyridin-3-yl)-N-[3-(4H-1,2,4-triazol-3-yl)propyl]quinoline-7-carboxamide] | 87 | > 100 | 1
CCOc1cc(-c2ccncc2)nc2cc(C(=O)NCCCc3nnc[nH]3)ccc12 [Compound I-214, 4-ethoxy-2-(pyridin-4-yl)-N-[3-(4H-1,2,4-triazol-3-yl)propyl]quinoline-7-carboxamide] | 97 | 10 to 50 | 1
CCOc1cc(-c2cccc(C(F)(F)F)c2)nc2cc(C(=O)NCCCc3nnc[nH]3)ccc12 [Compound I-215, 4-ethoxy-N-[3-(4H-1,2,4-triazol-3-yl)propyl]-2-[3-(trifluoromethyl)phenyl]quinoline-7-carboxamide] | 93 | 50 to 100 | 1

Source: patent publication US10323018B2 (Millennium Pharmaceuticals, Inc., priority 2015, dated 2019)
